The test system of this assay is 60 cancer cell lines (NCI 60 cancer cell line series). The assay can be described thus: NCI-DTP in vitro cancer screen, sulforhodamine B (SRB) growth inhibition, 48 hour exposure. Type of assay: cell-based, human. As to the method:
Cancer Cell Line Preparation. Sixty cancer cell lines were obtained from the National Cancer Institute Developmental Therapeutics Program (NCI-DTP). Procedures for growing cells and testing compounds have been described previously (Scudiero et al., Cancer Res. 1988, 48:4827-4833; Stinson et al., Anticancer Res.; Myers et al., Electrophoresis 1997, 18:647-653). Cells are plated on day 0 at a density individualized for each cell line so that they will generally be sub-confluent at the end of the assay period. On day 1, a compound is added in the format for a duplicate-well, 5-dose, ten-fold interval dose response study.
No-drug, no-cell and no-growth controls are included. On day 3 the cells are processed for staining with sulforhodamine B (SRB), which reflects the amount of cell mass present at the end of a 48 hour exposure to the test agent. From dose response curves based on the SRB data, various parameters can be determined. The one used in the present study is the G15o, defined as the concentration of compound required to inhibit growth of the cell line by 50%. More precisely, the quantity used in the calculation to be described is the potency measure -log{GI50}.
Activity database (A). Table IA, consisting of the growth inhibition (GI5o) values for the 60 cell lines and 24 compounds, was created from the NCI-DTP in vitro cancer screen database. This subset of compounds was selected from the larger 23,000 compound database available from the DTP. The compounds were selected on the basis of their known mechanism of action and chemical structure. The average potency—log{GI50} was extracted from the comma-delimited text files available through the Web at http://www.nci.nih.gov/intra/lmp/jnwbio.htmrl. Subsequently, these log{GI5o} values were inspected manually and classified as indicating either Low, Medium or High sensitivity to each compound.

SMILES strings stand for the structures.

As for `CC[C@]1(O)C[C@@H]2CN(CCc3c([nH]c4ccccc34)[C@@](C(=O)OC)(c3cc4c(cc3OC)N(C)[C@H]3[C@@](O)(C(=O)OC)[C@H](OC(C)=O)[C@]5(CC)C=CCN6CC[C@]43[C@@H]65)C2)C1` [Vinblastinesulfate], the “classification of cell line as Low(1), Medium(2) or High(3) sensitivity to compound” value (“classification of cell line” for short) reads like this: (Breast BT-549 (CL5013)) 3; (Breast HS-578T CL5006) 3; (Breast MCF7(I) (CL5001)) 3; (Breast MCF7/ADRr (CL5002)) 1; (Breast MDA-MB-231 CL5005) 2; (Breast MDA-MB-435 (CL5011)) 3. The “classification of cell line” value runs as follows: (Breast MDA-N CL5012) 3; (Breast T-47D (CL5014)) 3; (CNS SF-268 CL12014) 2; (CNS SF-295 CL12015) 2.

Consider `COc1cccc2c1C(=O)c1c(O)c3c(c(O)c1C2=O)C[C@@](O)(C(=O)CO)C[C@@H]3O[C@H]1C[C@H](N)C[C@H](C)O1` [Deoxydoxorubicin], for which the “classification of cell line” value turned out to be 2 (Breast BT-549 (CL5013)); 1 (Breast MCF7/ADRr (CL5002)); 2 (Breast MDA-N CL5012); 2 (CNS SF-268 CL12014); 2 (CNS SF-295 CL12015); 2 (CNS SF-539 CL12016). The “classification of cell line” value (CNS SNB-19 (CL12002)) turned out to be 2; the “classification of cell line” value (CNS SNB-75(I) CL12005) is reported as 2; the “classification of cell line” value (CNS U251(I) CL12009) turned out to be 2; the “classification of cell line” value (Colon COLO-250 CL4010) stood at 2; the “classification of cell line” value (Colon HCT-15 CL4015) was 1; the “classification of cell line” value (Colon HT29(I) CL4001) amounted to 2. In addition, the “classification of cell line” value (Colon KM12 (CL4017)) was 2; the “classification of cell line” value (Leukemia CCRF-CEM(I) (CL7003)) worked out at 2; the “classification of cell line” value (Leukemia K562(I) CL7005) came to 2; the “classification of cell line” value (Leukemia RPMI-8226(I) (CL7010)) came out at 2; the “classification of cell line” value (Leukemia SR CL7019) is recorded as 3; the “classification of cell line” value (Melanoma LOX IMVI CL10001) was 2. For the same compound, the “classification of cell line” value reads like this: (Melanoma M14 (CL10014)) 2; (Melanoma MALME-3M CL10002) 2. In addition, the “sensitivity class NSCLC NCI-H23(I) CL1001” value (cell line NSCLC NCI-H23(I), CL1001) is 2. Besides, the “sensitivity class NSCLC NCI-H522 CL1003” value (cell line NSCLC NCI-H522, CL1003) is recorded as 2. For the same compound, the “sensitivity class Ovarian IGROV1 CL6010” value (cell line Ovarian IGROV1, CL6010) was 2. Under “cell line Ovarian OVCAR-3, CL6001”, the “sensitivity class Ovarian OVCAR-3 CL6001” value turned out to be 2. Further, the “sensitivity class Ovarian OVCAR-4 CL6002” value (cell line Ovarian OVCAR-4, CL6002) was 2. For the same compound, the “sensitivity class Ovarian OVCAR-8 CL6005” value (cell line Ovarian OVCAR-8, CL6005) is given as 2. Under “cell line Ovarian SK-OV-3, CL6011”, the “sensitivity class Ovarian SK-OV-3 CL6011” value is on record as 2. Besides, the “sensitivity class Prostate DU-145 CL11003” value (cell line Prostate DU-145, CL11003) was determined as 2. Besides, under “cell line Prostate PC-3(I), CL11001”, the “sensitivity class Prostate PC-3(I) CL11001” value was determined as 2. Also, the “sensitivity class Renal A498 CL9013” value (cell line Renal A498, CL9013) was 2. In addition, the “sensitivity class Renal SN12C CL9008” value (cell line Renal SN12C, CL9008) was determined as 2. Also, the “sensitivity class Renal TK10 CL9024” value (cell line Renal TK10, CL9024) is reported as 1. Where the note is “cell line Renal UO-31, CL9004”, the “sensitivity class Renal UO-31 CL9004” value is 1. For the setting “number of the 60 cell lines classified High (3) sensitivity”, the “3 # of High” value is on record as 7.

In the case of `COc1cccc2c1C(=O)c1c(O)c3c(c(O)c1C2=O)C[C@@](O)(C(=O)CO)C[C@@H]3O[C@H]1C[C@H](N)[C@H](O)[C@H](C)O1` [Adrlamycin], the “classification of cell line” value reads like this: (Breast BT-549 (CL5013)) 2; (Breast HS-578T CL5006) 2; (Breast MCF7(I) (CL5001)) 3; (Breast MCF7/ADRr (CL5002)) 1; (Breast MDA-MB-231 CL5005) 2; (Breast MDA-MB-435 (CL5011)) 2. Besides, the “classification of cell line” value is, setting by setting: (Breast MDA-N CL5012) 2; (Breast T-47D (CL5014)) 2; (CNS SF-268 CL12014) 2; (CNS SF-295 CL12015) 2.
